Data as given in ChEMBL document CHEMBL1159008, “Isolation, NMR studies, and biological activities of onopordopicrin from Centaurea sonchifolia” (J Nat Prod, 1992).
Converted amounts (≈) assume the structure as drawn. The source made the active and inactive calls. No cut-off for these calls is given here.

Assays:
[1] = system: Trichophyton mentagrophytes; assay: Antifungal activity against Trichophyton mentagrophytes A-23 at 250 ug/dsik; format: functional, organism-based
Staphylococcus aureus = assay: Antibacterial activity against Staphylococcus aureus ATCC 25923 by disk diffusion assay; format: functional, organism-based
Candida albicans = assay: Antifungal activity against Candida albicans A-26 at 250 ug/dsik; format: functional, organism-based
Saccharomyces cerevisiae = assay: Antifungal activity against Saccharomyces cerevisiae M25 at 250 ug/dsik; format: functional, organism-based
KB = assay: Cytotoxicity against human KB cells; format: functional, cell-based

SMILES: C=C(CO)C(=O)O[C@H]1C/C(C)=C\CC/C(CO)=C\[C@H]2OC(=O)C(=C)[C@H]12 [ONOPORDOPICRIN]
- Activity [1]: inactive
- Activity (Staphylococcus aureus): Active
- Activity (Candida albicans): inactive
- Activity (Saccharomyces cerevisiae): inactive
- EC50 (KB): 0.85 µg/mL (≈ 2.44 µM)
